Consider 32 compounds from patent publication US9006440B2, “Furopyridine derivatives” (Merck Patent GmbH, priority 2010, dated 2015).

Usually IC50 stands for the concentration needed to halve the response being measured.

Format in all cases: biochemical
One test addresses T1, Zap70 (Homo sapiens, UniProt P43403).
T1 construct: purchased BPS Bioscience, CA, USA
T1 sequence (P43403 1-619): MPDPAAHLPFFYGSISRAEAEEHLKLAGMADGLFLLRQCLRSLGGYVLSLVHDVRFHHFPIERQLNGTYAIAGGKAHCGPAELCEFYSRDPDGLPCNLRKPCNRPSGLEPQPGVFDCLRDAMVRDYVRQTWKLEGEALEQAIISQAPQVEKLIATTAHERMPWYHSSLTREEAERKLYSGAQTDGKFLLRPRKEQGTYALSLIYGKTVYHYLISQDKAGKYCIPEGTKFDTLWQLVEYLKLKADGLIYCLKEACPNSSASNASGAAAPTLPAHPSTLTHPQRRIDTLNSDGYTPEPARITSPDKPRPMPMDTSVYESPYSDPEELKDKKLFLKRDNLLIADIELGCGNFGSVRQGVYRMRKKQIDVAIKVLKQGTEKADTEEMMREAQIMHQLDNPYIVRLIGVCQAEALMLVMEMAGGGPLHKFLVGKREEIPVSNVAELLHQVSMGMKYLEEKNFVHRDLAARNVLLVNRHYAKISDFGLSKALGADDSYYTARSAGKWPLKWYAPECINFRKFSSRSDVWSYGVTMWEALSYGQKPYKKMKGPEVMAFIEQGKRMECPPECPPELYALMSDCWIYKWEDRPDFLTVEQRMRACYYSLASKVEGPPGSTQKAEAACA
In words: ZAP-70 enzymatic assay (Caliper LifeSciences technology). How it is done:
(§1) The assays described here are performed on the Caliper Life Sciences LC3000 system This technology provides data on enzyme activity via measurement of the relative amounts of phosphorylated or unphosphorylated fluorescently labelled substrate peptide at the end of an enzymatic reaction. These different states of peptide are resolved by applying a potential difference across the sample. The presence of the charged phosphate group on the product (as opposed to the substrate) causes a different peptide mobility between the two peptides. This is visualized by excitation of the fluorescent label on the substrate and product peptides and represented as peaks within the analysis software.
(§2) In order to measure inhibitor activity of kinase inhibitors on this technology, a TTP Mosquito liquid handling instrument is used to place 0.25 ul of the appropriate concentration of inhibitor in 100% DMSO (for a dose response curve calculation) into each well of a 384-well plate. To this reaction components are added to a final volume of 25 ul. The table below indicates the sequences and concentrations for the assays described in this report. Standard components are 1 mM DTT (Sigma, D0632), 1 mM MgCl2 (Sigma, M1028), 100 mM HEPES pH 7.5 (Calbiochem, 391338), 0.015% Brij-35 (Sigma, B4184).
(§3) The reaction is incubated for 90 min at 25 C, and then stopped by the addition of 70 ul of Stop buffer (100 mM HEPES pH 7.5, 0.015% Brij-35, 10 mM EDTA (Sigma, E7889)).
(§4) The plate is read on a Caliper LC 3000 in an Off-Chip mobility shift assay format, on a 12-sipper chip. Unphosphorylated substrate and phosphorylated product peptide resolve as separate peaks allowing direct measurement of percentage of conversion of substrate to product. The percent conversion can be plotted against concentration of inhibitor to produce a sigmoidal dose response curve, from which an IC50 can be calculated using GeneData Condoseo or a similar product.

The next test addresses T2, KDR (Homo sapiens, UniProt P35968).
T2 construct: purchased BPS Bioscience, CA, USA
In words: KDR enzymatic assay (Caliper LifeSciences technology). As for the experimental part: as §1, §2, §3, §4

The target in a further test is T3, Syk (Homo sapiens, UniProt P43405).
T3 construct: purchased BPS Bioscience, CA, USA
Put plainly: Syk enzyme assay (SYK flash plate assay / Caliper mobility shift). The procedure, abridged: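 Flashplate format: 2.5 nM SYK, 400 nM biotinylated peptide, 10 μM ATP with 33P-ATP, pH 7.5, 1 h at 30 °C; radioactivity read, staurosporine background. Caliper format: 90 min at 25 °C, mobility-shift read of substrate-to-product conversion; IC50 from dose-response curve.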

A further test addresses T4, SRC (Homo sapiens, UniProt P12931).
T4 construct: purchased Carna Bioscience, Kobe, Japan
In words: Src enzymatic assay (Caliper LifeSciences technology). How it is done:
as §1, §2, §3, §4

In the next test the target is T5, BTK (Homo sapiens, UniProt Q06187).
T5 construct: purchased Carna Bioscience, Kobe, Japan
T5 sequence (Q06187 whole entry): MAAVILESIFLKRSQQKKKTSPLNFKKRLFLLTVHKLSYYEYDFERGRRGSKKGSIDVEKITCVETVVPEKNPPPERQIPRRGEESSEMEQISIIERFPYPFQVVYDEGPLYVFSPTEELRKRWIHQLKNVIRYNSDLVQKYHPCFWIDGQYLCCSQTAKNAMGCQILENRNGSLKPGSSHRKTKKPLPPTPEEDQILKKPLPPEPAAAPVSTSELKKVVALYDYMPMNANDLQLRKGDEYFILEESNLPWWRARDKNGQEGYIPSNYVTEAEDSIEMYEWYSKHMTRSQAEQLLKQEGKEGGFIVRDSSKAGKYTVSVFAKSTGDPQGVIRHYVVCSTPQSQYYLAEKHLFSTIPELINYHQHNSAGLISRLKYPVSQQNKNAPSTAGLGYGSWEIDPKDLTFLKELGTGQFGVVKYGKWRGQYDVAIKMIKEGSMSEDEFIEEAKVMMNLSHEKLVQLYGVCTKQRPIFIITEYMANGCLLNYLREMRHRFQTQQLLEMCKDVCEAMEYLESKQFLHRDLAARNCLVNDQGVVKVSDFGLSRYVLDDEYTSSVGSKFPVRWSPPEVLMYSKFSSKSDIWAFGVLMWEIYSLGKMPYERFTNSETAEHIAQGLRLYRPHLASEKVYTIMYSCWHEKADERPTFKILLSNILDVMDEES
In words: BTK enzymatic assay (Caliper LifeSciences technology). How it is done:
as §1, §2, §3, §4

T2 sequence (P35968 20-1356): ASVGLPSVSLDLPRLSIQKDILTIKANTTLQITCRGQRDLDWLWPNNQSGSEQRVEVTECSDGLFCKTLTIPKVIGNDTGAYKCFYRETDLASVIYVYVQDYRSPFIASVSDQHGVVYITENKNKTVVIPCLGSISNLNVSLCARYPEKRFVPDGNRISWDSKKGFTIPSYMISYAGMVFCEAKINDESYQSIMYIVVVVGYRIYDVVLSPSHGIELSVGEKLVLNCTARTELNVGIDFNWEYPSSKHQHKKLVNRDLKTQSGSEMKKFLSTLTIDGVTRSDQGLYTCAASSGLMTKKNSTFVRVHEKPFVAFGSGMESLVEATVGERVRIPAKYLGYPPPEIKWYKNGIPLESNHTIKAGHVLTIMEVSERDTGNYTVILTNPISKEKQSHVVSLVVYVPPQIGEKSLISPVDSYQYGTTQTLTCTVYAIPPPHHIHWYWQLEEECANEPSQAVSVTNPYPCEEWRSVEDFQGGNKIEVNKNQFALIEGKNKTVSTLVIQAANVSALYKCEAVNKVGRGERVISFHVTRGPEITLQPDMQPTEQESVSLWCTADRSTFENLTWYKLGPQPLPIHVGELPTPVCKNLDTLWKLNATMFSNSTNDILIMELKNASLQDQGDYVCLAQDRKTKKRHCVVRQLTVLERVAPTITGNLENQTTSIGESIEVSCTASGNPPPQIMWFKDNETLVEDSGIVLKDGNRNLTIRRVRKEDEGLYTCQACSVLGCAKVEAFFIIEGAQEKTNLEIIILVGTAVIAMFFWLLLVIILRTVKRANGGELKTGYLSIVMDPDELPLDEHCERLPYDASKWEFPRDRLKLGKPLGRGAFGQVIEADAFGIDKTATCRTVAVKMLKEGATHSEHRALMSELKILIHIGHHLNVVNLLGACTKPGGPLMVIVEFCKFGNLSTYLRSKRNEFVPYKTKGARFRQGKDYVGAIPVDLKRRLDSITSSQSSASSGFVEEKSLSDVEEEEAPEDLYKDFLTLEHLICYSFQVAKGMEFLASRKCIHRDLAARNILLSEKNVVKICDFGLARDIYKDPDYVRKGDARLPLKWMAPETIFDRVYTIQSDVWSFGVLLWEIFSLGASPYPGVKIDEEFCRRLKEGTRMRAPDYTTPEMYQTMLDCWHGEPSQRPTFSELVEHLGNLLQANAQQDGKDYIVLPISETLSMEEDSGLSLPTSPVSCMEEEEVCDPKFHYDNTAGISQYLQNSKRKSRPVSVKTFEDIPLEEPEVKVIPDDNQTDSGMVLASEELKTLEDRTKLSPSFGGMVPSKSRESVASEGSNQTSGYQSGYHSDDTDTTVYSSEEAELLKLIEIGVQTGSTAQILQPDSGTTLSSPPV
T4 sequence (P12931 whole entry): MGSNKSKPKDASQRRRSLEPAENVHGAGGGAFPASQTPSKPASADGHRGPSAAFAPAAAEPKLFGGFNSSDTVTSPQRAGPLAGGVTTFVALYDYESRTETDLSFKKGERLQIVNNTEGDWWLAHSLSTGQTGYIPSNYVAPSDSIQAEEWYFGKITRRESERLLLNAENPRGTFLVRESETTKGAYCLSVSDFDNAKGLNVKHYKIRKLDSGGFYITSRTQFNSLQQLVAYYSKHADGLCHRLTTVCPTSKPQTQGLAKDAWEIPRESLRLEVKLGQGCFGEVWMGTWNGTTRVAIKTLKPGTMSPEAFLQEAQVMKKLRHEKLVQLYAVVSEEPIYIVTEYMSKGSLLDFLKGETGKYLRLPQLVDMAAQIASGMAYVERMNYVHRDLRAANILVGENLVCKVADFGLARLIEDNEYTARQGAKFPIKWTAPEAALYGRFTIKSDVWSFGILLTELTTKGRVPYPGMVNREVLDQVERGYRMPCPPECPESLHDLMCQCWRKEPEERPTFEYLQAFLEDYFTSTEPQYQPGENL

Consider `COc1cc(-c2cc3nccc(-c4cccc5[nH]ncc45)c3o2)cc(OC)c1OC` [Compound A17, 7-(1H-Indazol-4-yl)-2-(3,4,5-trimethoxy-phenyl)-furo[3,2-b]pyridine], for which the IC50 was 3 to 50 µM on Zap70, 0.3 to 3 µM against KDR and < 0.3 µM at Syk.

`CNC(=O)c1ccccc1Nc1ccnc2cc(-c3cc(OC)c(OC)c(OC)c3)oc12` [Compound B8, N-Methyl-2-[2-(3,4,5-trimethoxy-phenyl)-furo[3,2-b]pyridin-7-ylamino]-benzamide]: the IC50 against SRC, against BTK and on Syk was 0.3 to 3 µM throughout. On to `OCc1ccc(-c2cc3nccc(-c4ccc(CO)cc4)c3o2)cc1` [Compound B44, {4-[2-(4-Hydroxymethyl-phenyl)-furo[3,2-b]pyridin-7-yl]-phenyl}-methanol], for which the IC50 is < 0.3 µM on KDR, 3 to 50 µM on BTK and 0.3 to 3 µM at Syk. Turning to `COc1cc(-c2cc3nccc(-c4ccc5c(c4)OCO5)c3o2)cc(OC)c1OC` [Compound B76, 7-(Benzo[d][1,3]dioxol-5-yl)-2-(3,4,5-trimethoxyphenyl)furo[3,2-b]pyridine], the IC50 at Zap70 is 0.3 to 3 µM; on Syk, < 0.3 µM. As for `Nc1cccc(-c2cc3nccc(Oc4ccc(Oc5ccccc5)cc4)c3o2)c1` [Compound B79, 3-[7-(4-Phenoxyphenoxy)furo[3,2-b]pyridin-2-yl]aniline], the concentration for half-maximal inhibition (IC50) lay within 0.3 to 3 µM against BTK and 3 to 50 µM on Syk. As to `COc1cc(-c2cc3nccc(-c4cnn(Cc5ccccc5)c4)c3o2)cc(OC)c1OC` [Compound C58], the IC50 on Zap70 and on Syk was < 0.3 µM each time.

`COc1cc(-c2cc3nccc(-c4ccnn4C)c3o2)cc(OC)c1OC` [Compound C64]: the IC50 at Zap70 was 3 to 50 µM; on Syk it was 0.3 to 3 µM. Turning to `COc1cc(-c2cc3nccc(-c4cnc5c(c4)CCCO5)c3o2)cc(OC)c1OC` [Compound C113], the IC50 at SRC is 0.3 to 3 µM; against KDR, 0.3 to 3 µM; on Syk, < 0.3 µM.

For the compound `Cn1cc(-c2ccnc3cc(-c4ccc5nc[nH]c5c4)oc23)cn1` [Compound C123], the IC50 is 0.3 to 3 µM against KDR, 3 to 50 µM against BTK and < 0.3 µM at Syk. For the compound `COc1cc(-c2cc3nccc(-c4c[nH]nc4C)c3o2)cc(OC)c1OC` [Compound C127], the half-maximal inhibitory concentration (IC50) against SRC is 0.3 to 3 µM; at KDR it was 0.3 to 3 µM; at Syk, < 0.3 µM. With `COc1ccc(O)cc1-c1ccnc2cc(-c3cc(OC)c(OC)c(OC)c3)oc12` [Compound C136], the IC50 at SRC is 0.3 to 3 µM; against KDR, 0.3 to 3 µM; at Syk it was < 0.3 µM. Turning to `COc1cc(-c2cc3nccc(-c4cc(OC(C)C)cc(C(=O)O)c4)c3o2)cc(OC)c1OC` [Compound C155], the IC50 at SRC is 0.3 to 3 µM; on KDR, 0.3 to 3 µM; on Syk, < 0.3 µM. Turning to `COc1cc(-c2cc3nccc(-c4cc(OC(F)(F)F)cc(C(=O)O)c4)c3o2)cc(OC)c1OC` [Compound C163], the IC50 against SRC is 0.3 to 3 µM; at KDR it was 0.3 to 3 µM; at Syk, < 0.3 µM. Consider `COc1ccc(OC)c(-c2cc3nccc(-c4cccc(C(=O)N[C@@H]5CCCC[C@@H]5N)c4)c3o2)c1` [Compound C178], for which the IC50 was < 0.3 µM at SRC, 0.3 to 3 µM against KDR and < 0.3 µM at Syk. In the case of `C=CC(=O)NCc1cccc(-c2cc3nccc(Oc4ccc(Oc5ccccc5)cc4)c3o2)c1` [Compound D4, N-{3-[7-(4-Phenoxy-phenoxy)-furo[3,2-b]pyridin-2-yl]-benzyl}-acrylamide], the IC50 against BTK is < 0.3 µM. `CCC(=O)Nc1cccc(-c2cc3nccc(Oc4ccccc4)c3o2)c1` [Compound D8, N-[3-(7-Phenoxy-furo[3,2-b]pyridin-2-yl)-phenyl]-propionamide] displayed a half-maximal inhibitory concentration (IC50) on BTK of 3 to 50 µM. The same measure, in the same setting: the figure for `C=CC(=O)Nc1cccc(-c2cc3nccc(Oc4cccc(Cl)c4)c3o2)c1` [Compound D9, N-{3-[7-(3-Chloro-phenoxy)-furo[3,2-b]pyridin-2-yl]-phenyl}-acrylamide] is 3 to 50 µM; for `C=CC(=O)Nc1cccc(-c2cc3nccc(Oc4ccc5ncccc5c4)c3o2)c1` [Compound D10, N-{3-[7-(Quinolin-6-yloxy)-furo[3,2-b]pyridin-2-yl]-phenyl}-acrylamide] it is 3 to 50 µM.

Compound `C=CC(=O)Nc1cccc(-c2cc3nccc(Oc4ccc(Cl)cc4)c3o2)c1` [Compound D11, N-{3-[7-(4-Chloro-phenoxy)-furo[3,2-b]pyridin-2-yl]-phenyl}-acrylamide] returned an IC50 on BTK of 0.3 to 3 µM. Still for that read-out and setting: the figure for `CCC(=O)Nc1cccc(-c2cc3nccc(-c4ccccc4)c3o2)c1` [Compound D14, N-[3-(7-Phenyl-furo[3,2-b]pyridin-2-yl)-phenyl]-propionamide] is 3 to 50 µM; for `C=CC(=O)NCc1cccc(-c2cc3nccc(-c4ccccc4)c3o2)c1` [Compound D15, N-[3-(7-Phenyl-furo[3,2-b]pyridin-2-yl)-benzyl]-acrylamide] it is 0.3 to 3 µM; for `O=C(CCl)NCc1cccc(-c2cc3nccc(-c4ccccc4)c3o2)c1` [Compound D16, 2-Chloro-N-[3-(7-phenyl-furo[3,2-b]pyridin-2-yl)-benzyl]-acetamide] it is 0.3 to 3 µM. The compound `C=CC(=O)Nc1cccc(Oc2ccnc3cc(-c4ccccc4)oc23)c1` [Compound D19, N-[3-(2-Phenyl-furo[3,2-b]pyridin-7-yloxy)-phenyl]-acrylamide] gave a half-maximal inhibitory concentration (IC50) at BTK of 0.3 to 3 µM. On the same count and under the same terms, then `O=C(CCl)Nc1cccc(Oc2ccnc3cc(-c4ccccc4)oc23)c1` [Compound D20, 2-Chloro-N-[3-(2-phenyl-furo[3,2-b]pyridin-7-yloxy)-phenyl]-acetamide], with < 0.3 µM; and `CCC(=O)Nc1cccc(Oc2ccnc3cc(-c4ccccc4)oc23)c1` [Compound D21, N-[3-(2-Phenyl-furo[3,2-b]pyridin-7-yloxy)-phenyl]-propionamide], with 3 to 50 µM; and `C=CC(=O)Nc1ccc(Oc2ccnc3cc(-c4ccccc4)oc23)cc1` [Compound D22, N-[4-(2-Phenyl-furo[3,2-b]pyridin-7-yloxy)-phenyl]-acrylamide], with 0.3 to 3 µM. On the same count and under the same terms, the figure for `O=C(CCl)Nc1ccc(Oc2ccnc3cc(-c4ccccc4)oc23)cc1` [Compound D23, 2-Chloro-N-[4-(2-phenyl-furo[3,2-b]pyridin-7-yloxy)-phenyl]-acetamide] is < 0.3 µM; for `CCC(=O)Nc1ccc(Oc2ccnc3cc(-c4ccccc4)oc23)cc1` [Compound D24, N-[4-(2-Phenyl-furo[3,2-b]pyridin-7-yloxy)-phenyl]-propionamide] it is 3 to 50 µM; for `C=CC(=O)NCc1ccc(-c2ccnc3cc(-c4ccccc4)oc23)cc1` [Compound D25, N-[4-(2-Phenyl-furo[3,2-b]pyridin-7-yl)-benzyl]-acrylamide] it is 0.3 to 3 µM. Regarding `Cc1cc2nccc(Oc3cccc(NC(=O)CCl)c3)c2o1` [Compound D27, 2-Chloro-N-[3-(2-methyl-furo[3,2-b]pyridin-7-yloxy)-phenyl]-acetamide], the IC50 against BTK was < 0.3 µM. `CCC(=O)Nc1cccc(Oc2ccnc3cc(C)oc23)c1` [Compound D28, N-[3-(2-Methyl-furo[3,2-b]pyridin-7-yloxy)-phenyl]-propionamide] yielded an IC50 against BTK of 3 to 50 µM.

Compound `CCC(=O)Nc1cccc(-c2ccnc3cc(C)oc23)c1` [Compound D29, N-[3-(2-Methyl-furo[3,2-b]pyridin-7-yl)-phenyl]-propionamide] displayed a 50% inhibitory concentration (IC50) on BTK of 3 to 50 µM.
